Where a name gives a salt, the structure may show the parent alone.
These molecules were tested against T1, G-CSF receptor (Mus musculus, UniProt P40223) (assay: Luciferase assay in NFS60 cells (G-CSF mimetic potency)). Conditions: concentration range of 1 to 32 uM.
T1 construct: NSF60 cells express endogenous G-CSF receptors; endogenous in cells; host or cells: NFS60 cells
T1 sequence (P40223 26-837): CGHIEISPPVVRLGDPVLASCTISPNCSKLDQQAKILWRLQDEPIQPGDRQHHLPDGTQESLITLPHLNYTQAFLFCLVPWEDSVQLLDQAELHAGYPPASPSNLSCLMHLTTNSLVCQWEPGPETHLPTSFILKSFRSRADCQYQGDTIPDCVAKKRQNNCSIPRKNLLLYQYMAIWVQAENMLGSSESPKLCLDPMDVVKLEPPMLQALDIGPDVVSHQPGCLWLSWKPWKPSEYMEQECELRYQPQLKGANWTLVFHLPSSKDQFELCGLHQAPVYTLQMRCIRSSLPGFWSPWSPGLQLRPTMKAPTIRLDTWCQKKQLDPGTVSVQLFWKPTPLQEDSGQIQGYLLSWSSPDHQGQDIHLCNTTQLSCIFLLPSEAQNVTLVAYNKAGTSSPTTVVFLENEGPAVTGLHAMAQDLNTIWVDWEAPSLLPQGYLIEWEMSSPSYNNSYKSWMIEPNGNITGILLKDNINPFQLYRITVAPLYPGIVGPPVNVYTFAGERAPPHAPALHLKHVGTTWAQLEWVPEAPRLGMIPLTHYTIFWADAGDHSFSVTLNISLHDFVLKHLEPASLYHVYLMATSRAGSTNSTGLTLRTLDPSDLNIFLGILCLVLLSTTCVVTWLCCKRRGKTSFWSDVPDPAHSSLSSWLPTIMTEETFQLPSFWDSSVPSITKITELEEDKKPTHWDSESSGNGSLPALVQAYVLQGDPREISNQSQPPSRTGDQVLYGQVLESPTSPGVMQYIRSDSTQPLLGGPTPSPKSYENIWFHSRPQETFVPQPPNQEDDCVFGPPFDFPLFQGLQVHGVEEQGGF
Assay type: cell-based
Text: Luciferase Assay […] Natl. Acad. Sci., USA 92: 3041-3045 (1995) by substituting NFS60 cells for the HepG2 cells utilized therein. The NFS60 cells (Holmes, et al., Proc. Natl. Acad. Sci. USA 82: 6687-6691 (1985)) were substituted for the HepG2 cells in the Lamb assay because the NSF60 cells express endogenous G-CSF receptors closely matching the pattern of STAT (signal transducers and activators of transcription) activation observed in primary murine and human bone marrow cells.

Compound	activation, % of control, in the luciferase assay
c1ccc(C23NC(=Nc4nc5ccccc5[nH]4)NC2(c2ccccn2)NC(=Nc2nc4ccccc4[nH]2)N3)nc1 (stereo not drawn) [Example 1]	above 150 % of control
c1ccc(C23NC(=Nc4nc5ccccc5[nH]4)NC2(c2ccccc2)NC(=Nc2nc4ccccc4[nH]2)N3)cc1 (stereo not drawn) [Example 2]	above 150 % of control
c1coc(C23NC(=Nc4nc5ccccc5[nH]4)NC2(c2ccco2)NC(=Nc2nc4ccccc4[nH]2)N3)c1 (stereo not drawn) [Example 3, 2,5-bis[2-benzimidazolylimino]-3a,6a-bis(2-furyl)-1,2,3,3a,4,5,6,6a-bis(2-pyridyl)octahydroimidazo[4.5-d]imidazole]	≤ 150 % of control
Cc1csc(N=C2NC3(c4ccccn4)NC(=Nc4nc(C)cs4)NC3(c3ccccn3)N2)n1 (stereo not drawn) [Example 13, 2,5-bis[(4-methyl-2-thiazolyl)imino]-3a,6a-bis(2-pyridyl)-1,2,3,3a,4,5,6a-octahydroimidazo[4,5-d]imidazole]	above 150 % of control
c1ccc(C23NC(=Nc4nc5ccccc5o4)NC2(c2ccccn2)NC(=Nc2nc4ccccc4o2)N3)nc1 (stereo not drawn) [Example 14, 2,5-bis[2-benzoxazolylimino]-3a,6a-bis(2-pyridyl)-1,2,3a,4,5,6,6a-octahydroimidazo[4,5-d]imidazole]	≤ 150 % of control
Fc1ccc2nc(N=C3NC4(c5ccccn5)NC(=Nc5nc6ccccc6[nH]5)NC4(c4ccccn4)N3)[nH]c2c1.O=C(O)C(F)(F)F.O=C(O)C(F)(F)F (stereo not drawn) [Example 19, 5-(2-benzimidazolylimino)-2-[(5-fluoro-2-benzimidazolyl)imino]-3a,6a-bis(2-pyridyl)-1,2,3,3a,4,5,6,6a-octahydroimidazo[4,5-d]imidazole bis(trifluoroacetate) salt]	≤ 150 % of control
Fc1ccc2nc(N=C3NC4(c5ccccn5)NC(=Nc5nc6ccc(F)cc6[nH]5)NC4(c4ccccn4)N3)[nH]c2c1 (stereo not drawn) [Example 20, 2,5-bis[(5-fluoro-2-benzimidazolyl)imino]-3a,6a-bis(2-pyridyl-1,2,3,3a4,5,6,6a-octahydroimidazo[4,5-d]imidazolebis(trifluoroacetate) salt]	above 150 % of control
Cc1cc2nc(N=C3NC4(c5ccccn5)NC(=Nc5nc6cc(C)c(C)cc6[nH]5)NC4(c4ccccn4)N3)[nH]c2cc1C (stereo not drawn) [Example 25, 2,5-bis[(5.6-dimethyl-2-benzimidazolyl)imino]-3a,6a-bis(2-pyridyl)-1,2,2a,4,5,6,6a-octahydroimidazo[4,5-d]imidazole bis(trifluoroacetate) salt]	above 150 % of control
Cc1cc2nc(N=C3NC4(c5ccccn5)NC(=Nc5nc6ccccc6[nH]5)NC4(c4ccccn4)N3)[nH]c2cc1C (stereo not drawn) [Example 26, 5-[2-benzimidazolylimino]-2-[(5,6-dimethyl-2-benzimidazolyl)imino]-3a,6a-bis(2-pyridyl)-1,2,2a,4,5,6,6a-octahydroimidazo[4,5-d]imidazole bis(trifluoroacetate) salt]	above 150 % of control
c1ccc(C23NC(=Nc4nc5ccccc5[nH]4)NC2(c2ccccn2)NC(=Nc2nc4ccccc4s2)N3)nc1 (stereo not drawn) [Example 30, 5-[2-benzimidazolylimino]-2-[2-benzothiazolylimino]-3a,6a-bis(2-pyridyl)-1,2,3a,4,5,6,6a-octahydroimidazo[4,5-d]imidazole bis(trifluoroacetate)]	above 150 % of control
O=C(O)c1ccc2nc(N=C3NC4(c5ccccn5)NC(=Nc5nc6ccccc6[nH]5)NC4(c4ccccn4)N3)[nH]c2c1 (stereo not drawn) [Example 31, 5-[(2-benzimidazolylimino]1-2-[(5-carboxy-2-benzimidazolyl)imino]-3a,6a-bis(2-pyridyl)-1,2,3,3a,4,5,6,6a-octahydroimidazo[4,5-d]imidazolebis(trifluoroacetate) salt]	≤ 150 % of control
Ic1ccc2nc(N=C3NC4(c5ccccn5)NC(=Nc5nc6ccc(I)cc6[nH]5)NC4(c4ccccn4)N3)[nH]c2c1.O=C(O)C(F)(F)F.O=C(O)C(F)(F)F (stereo not drawn) [Example 32a, 2,5-bis[(5-iodo-2-benzimidazolyl)imino]-3a,6a-bis(2-pyridyl)-1,2,3,3a,4,5,6,6a-octahydroimidazo[4,5-d]imidazole bis(trifluoroacetate) salt]	≤ 150 % of control
Ic1ccc2nc(N=C3NC4(c5ccccn5)NC(=Nc5nc6ccccc6[nH]5)NC4(c4ccccn4)N3)[nH]c2c1 (stereo not drawn) [Example 32b, 5-[2-benzimidazolylimino]-2-[(5-iodo-2-benzimidazolyl)imino]-3a,6a-bis(2-pyridyl)-1,2,2a,4,5,6,6a-octahydroimidazo[4,5-d]imidazole bis(trifluoroacetate) salt]	above 150 % of control
Brc1ccc(C23NC(=Nc4nc5ccccc5[nH]4)NC2(c2ccc(Br)cc2)NC(=Nc2nc4ccccc4[nH]2)N3)cc1 (stereo not drawn) [Example 33, 2,5-bis[2-benzimidazolylimino]-3a,6a-bis(4-bromophenyl)-1,2,3,3a,4,5,6,6a-octahydroimidazo[4,5-d]imidazole]	≤ 150 % of control
FC(F)(F)c1ccc(C23NC(=Nc4nc5ccccc5[nH]4)NC2(c2ccc(C(F)(F)F)cc2)NC(=Nc2nc4ccccc4[nH]2)N3)cc1 (stereo not drawn) [Example 34, 2,5-bis[2-benzimidazolylimino]-3a,6a-bis(4-trifluoromethylphenyl)-1,2,3,3a,4,5,6,6a-octahydroimidazo[4,5-d]imidazole]	above 150 % of control
Clc1cccc(C23NC(=Nc4nc5ccccc5[nH]4)NC2(c2ccccc2)NC(=Nc2nc4ccccc4[nH]2)N3)c1 (stereo not drawn) [Example 35, 2,5-bis[2-benzimidazolylimino]-3a-(3-chlorophenyl)-6a-phenyl-1,2,3,3a,4,5,6,6a-octahydroimidazo[4,5-d]imidazole]	above 150 % of control
Clc1ccccc1C12NC(=Nc3nc4ccccc4[nH]3)NC1(c1ccccc1)NC(=Nc1nc3ccccc3[nH]1)N2 (stereo not drawn) [Example 36, 2,5-bis[2-benzimidazolylimino]-3a-(2-chlorophenyl)-6a-phenyl-1,2,3,3a,4,5,6,6a-octahydroimidazo[4,5-d]imidazole]	≤ 150 % of control
Cc1ccc2nc(N=C3NC4(c5ccccc5)NC(=Nc5nc6ccccc6[nH]5)NC4(c4ccccn4)N3)[nH]c2c1.O=C(O)C(F)(F)F.O=C(O)C(F)(F)F (stereo not drawn) [Example 37, 5-(2-benzimidazolylimino)-2-[(5-methyl-2-benzimidazolyl)imino]-3a-(2-pyridyl)-6a-phenyl-1,2,3,3a,4,5,6,6a-octahydroimidazo[4,5-d]imidazole bis(trifluoroacetate) salt]	above 150 % of control
Cn1c(N=C2NC3(c4ccccc4)NC(=Nc4nc5ccccc5n4C)NC3(c3ccccc3)N2)nc2ccccc21 (stereo not drawn) [Example 38, 2,5-bis[(1-methyl-2-benzimidazolyl)imino]-3a,6a-diphenyl-1,2,3,3a,4,5,6,6a-octahydromidazo[4,5-d]imidazole]	≤ 150 % of control
Cc1ccc(C23NC(=Nc4nc5ccccc5n4C)NC2(c2ccc(C)cc2)NC(=Nc2nc4ccccc4n2C)N3)cc1 (stereo not drawn) [Example 39, 2,5-bis[(1-methyl-2-benzimidazolyl)imino]-3a,6a-bis(4-methylphenyl)-1,2,3,3a,4,5,6,6a-octahydromidazo[4,5-d]imidazole]	above 150 % of control
Cn1c(N=C2NC3(c4ccc(Br)cc4)NC(=Nc4nc5ccccc5n4C)NC3(c3ccc(Br)cc3)N2)nc2ccccc21 (stereo not drawn) [Example 40, 2,5-bis[(1-methyl-2-benzimidazolyl)imino]-3a,6a-bis(4-bromophenyl)-1,2,3,3a,4,5,6,6a-octahydromidazo[4,5-d]imidazole]	≤ 150 % of control

From patent US5981551A, “2,5-diimino-3a,6a-diaryl-1,2,3,3a,4,5,6,6a-octahydroim idazo[4,5-d]imidazoles which are effective as G-CSF mimetics” (SmithKline Beecham Corporation, priority 1998, dated 1999)
